In one data set the target is T1, human CCR2b receptor (Homo sapiens, UniProt P41597).
T1 sequence (P41597 1-360 isoform P41597-2): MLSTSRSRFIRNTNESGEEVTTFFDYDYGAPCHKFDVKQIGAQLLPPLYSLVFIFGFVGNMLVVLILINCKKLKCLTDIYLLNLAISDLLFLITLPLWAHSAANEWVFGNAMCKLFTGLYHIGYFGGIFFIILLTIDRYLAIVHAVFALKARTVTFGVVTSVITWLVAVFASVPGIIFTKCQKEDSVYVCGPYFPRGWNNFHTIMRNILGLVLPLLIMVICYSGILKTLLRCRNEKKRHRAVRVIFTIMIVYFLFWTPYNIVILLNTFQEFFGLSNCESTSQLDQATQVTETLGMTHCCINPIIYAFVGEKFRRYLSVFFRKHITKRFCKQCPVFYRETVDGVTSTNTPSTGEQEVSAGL
In words: Inhibitory activity on cells expressing the human CCR2b receptor. Type of data set: cell-based. The method, then:
The inhibitory activity of the compounds according to the invention on cells expressing the human CCR2b receptor was measured.

The test system of a further data set is human THP-1 monocytes. In words: Inhibition of chemotaxis on human THP-1 monocytes (adapted from Albini et al.). Type of data set: cell-based. The following applies: hMCP-1. How it is done:
The inhibition of chemotaxis was also measured on human THP-1 monocytes (sold by DSMZ-Germany) using a technique adapted from that described by A. Albini et al., Cancer Res., 1987, 47, 3239-3245. Under these conditions, hMCP-1 has an IC50 value of 6 nM.
The inhibition of chemotaxis by the compounds according to the invention is a sign of their antagonist activity on the chemokine receptors and in particular CCR2b.

Another data set has as its system HIV-1 Bal virus. In words: Inhibitory activity on PBMCs infected with HIV-1 Bal virus (reverse transcriptase content in supernatant). Type of data set: cell-based. The following applies: 5 days exposure, read-out: IC50 of inhibition of HIV-1 Bal replication in PBMCs. How it is done:
The inhibitory activity of the compounds according to the invention on PBMCs (peripheral blood mononuclear cells) infected with the HIV-1 Bal virus was also measured, according to a technique adapted from that described by V. Dolle et al., J. Med. Chem., 2000, 43, 3949, 3962. According to this technique, the PMBCs are infected with HIV-1 Bal and the test compounds are then added to the culture medium for 5 days. At the end of this exposure, the content of reverse transcriptase, which is correlated with the level of viral replication in the cells, is measured in the supernatant.
Under these conditions, AZT, a reference molecule which inhibits viral replication, has an IC50 value of less than 0.1 μM.

Where [1] appears, read: read-out: IC50 of inhibitory activity on cells expressing the human CCR2b receptor.

Where two headings read alike, the source gives them in different places.

With `CCCCc1ccc(OC)c(-c2csc(NC(=O)c3ccc(CCCNC4CCOCC4)cc3)n2)c1` [compound 182, N-[4-(5-Butyl-2-methoxyphenyl)-1,3-thiazol-2-yl]-4-[3-(tetrahydro-2H-pyran-4-ylamino)propyl]benzamide], the melting point turned out to be 150 °C.

On to `CCCc1ccc(OC)c(-c2csc(NC(=O)c3ccc(C(=O)N4CCC(N5CC[C@@H](N(C)C)C5)CC4)cc3)n2)c1` [compound 203], for which the IC50 at human CCR2b receptor (setting [1]) came to 93 nM.

Turning to “hMCP-1: "hMCP-1 (human monocyte chemotactic protein), which belongs to the group of CC chemokines and whose actions are mediated by the CCR2b receptor"”, the IC50 was 0.57 nM with human CCR2b receptor (natural agonist, read-out: concentration of natural agonist hMCP-1 that inhibits 50% (IC50) of the activity of the CCR2b receptor) and 6 nM with human THP-1 monocytes.

`CCCCc1ccc(OC)c(-c2csc(NC(=O)c3ccc(C(=O)N4CCC(NC5CCOCC5)CC4)cc3)n2)c1.Cl.Cl` [68] came in with a melting point of 181 to 189 °C.

Consider `Cc1cn([C@H]2C[C@H](N=[N+]=[N-])[C@@H](CO)O2)c(=O)[nH]c1=O` [AZT], for which the IC50 in the data set on HIV-1 Bal virus was below 100 nM.

With `CCOc1ccc(C2CCCCC2)cc1-c1csc(NC(=O)c2ccc(C(=O)N3CCC(=O)CC3)cc2)n1` [compound 244], the melting point was found to be 236 °C. Besides, the IC50 at human CCR2b receptor (setting [1]) came out at 88 nM.

For the compound `CCOc1ccc(OCC)c(-c2csc(NC(=O)c3ccc(OCCN(CC)CC)cc3)n2)c1` [compound 12], the IC50 on human CCR2b receptor (setting [1]) worked out at 81 nM.

Broadly, the melting point is the temperature of the solid-liquid transition.

Source of the values: US7777041B2, “2-acylamino-4-phenylthiazole derivatives, preparation thereof and therapeutic application thereof” (sanofi-aventis, priority 2003, dated 2010).
